# Measured values as given in patent publication US9259390B2, “Parenteral and oral formulations of benzimidazoles” (priority 2003, dated 2016).
# Where “and” joins values, the source holds several entries; their conditions need not be identical. Identical values can stand only once.
# What was measured:
# [1] = system: H1299 cells; experiment: Cell growth inhibition in NSCLC cells; assay type: cell-based; conditions: Homo sapiens, NCI-H1299, NSCLC cells; MZ from two microemulsion formulations
# [2] = system: A375; experiment: Cell growth inhibition in skin cancer cells; assay type: cell-based; conditions: Homo sapiens, A-375
# [3] = In vitro MZ release, USP Dissolution Apparatus 2; assay type: physicochemical; conditions: for Cumulative MZ Released: individual determinations
# Experimental: All four formulations were filled manually with a syringe into a hydrophilic airfill soft gelatin capsule (R. P. Scherer, Basking Ridge, N.J.) and the resulting hole was sealed thermally. […] C. Cremphor RH 40 was used to maintain the sink condition of the releasing medium. The release medium was constantly stirred at 50 rpm by a Teflon-coated dissolution paddle. Serial release samples were withdrawn and filtered through a 0.45 μm Millipore filter and analyzed by the HPLC assay.
# [4] = system: SRB1; experiment: Cell growth inhibition in skin cancer cells; assay type: cell-based
# [5] = 33 days
# [6] = physchem
# [7] = system: 2237; experiment: Cell growth inhibition in skin cancer cells; assay type: cell-based
compound,measurement,setting,value
"COC(=O)Nc1nc2ccc(C(=O)c3ccccc3)cc2[nH]1 [MZ, methyl 5-benzoylbenzimidazole-2-carbamate]",IC50,[1],0.008 µg/mL
same,IC50,[2],0.129 µg/mL
same,"Cumulative MZ Released, Mean",[3]; 10 min,0.04 % Dose
same,Cumulative MZ Released,"[3]; 10 min, listed as MZ powder",0.01 % Dose and 0.012 % Dose and 0.083 % Dose
same,"Cumulative MZ Released, Mean",[3]; 20 min,0.15 % Dose
same,Cumulative MZ Released,"[3]; 20 min, listed as MZ powder",0.035 % Dose and 0.22 % Dose and 0.18 % Dose
same,"Cumulative MZ Released, Mean",[3]; 30 min,0.22 % Dose
same,Cumulative MZ Released,"[3]; 30 min, listed as MZ powder",0.14 % Dose and 0.25 % Dose and 0.28 % Dose
same,"Cumulative MZ Released, Mean",[3]; 40 min,0.29 % Dose
same,Cumulative MZ Released,"[3]; 40 min, listed as MZ powder",0.22 % Dose and 0.23 % Dose and 0.41 % Dose
same,"Cumulative MZ Released, Mean",[3]; 50 min,0.29 % Dose
same,Cumulative MZ Released,"[3]; 50 min, listed as MZ powder",0.2 % Dose and 0.31 % Dose and 0.35 % Dose
same,Cumulative MZ Released,"[3]; 60 min, listed as MZ powder",0.27 % Dose (2×) and 0.32 % Dose
same,"Cumulative MZ Released, Mean","[3]; 60 min, listed as MZ powder",0.29 % Dose
same,"Cumulative MZ Released, Mean","[3]; 60 min, listed as unformulated drug powder",0.3 % Dose
same,IC50,[4],0.091 µg/mL
same,pH-stability,[5],sufficiently stable
same,logP,[6],2.51
same,IC50,[7],0.171 µg/mL
